Values joined by “and” are separate entries in the source; they are usually repeats but may differ in a detail not shown here. Equal entries are not always repeated.
Target: T1, human leukocyte 5-lipoxygenase (Homo sapiens, UniProt P09917)
T1 construct: endogenous in cells; host or cells: intact leukocytes isolated from human blood
T1 sequence (P09917 1-674): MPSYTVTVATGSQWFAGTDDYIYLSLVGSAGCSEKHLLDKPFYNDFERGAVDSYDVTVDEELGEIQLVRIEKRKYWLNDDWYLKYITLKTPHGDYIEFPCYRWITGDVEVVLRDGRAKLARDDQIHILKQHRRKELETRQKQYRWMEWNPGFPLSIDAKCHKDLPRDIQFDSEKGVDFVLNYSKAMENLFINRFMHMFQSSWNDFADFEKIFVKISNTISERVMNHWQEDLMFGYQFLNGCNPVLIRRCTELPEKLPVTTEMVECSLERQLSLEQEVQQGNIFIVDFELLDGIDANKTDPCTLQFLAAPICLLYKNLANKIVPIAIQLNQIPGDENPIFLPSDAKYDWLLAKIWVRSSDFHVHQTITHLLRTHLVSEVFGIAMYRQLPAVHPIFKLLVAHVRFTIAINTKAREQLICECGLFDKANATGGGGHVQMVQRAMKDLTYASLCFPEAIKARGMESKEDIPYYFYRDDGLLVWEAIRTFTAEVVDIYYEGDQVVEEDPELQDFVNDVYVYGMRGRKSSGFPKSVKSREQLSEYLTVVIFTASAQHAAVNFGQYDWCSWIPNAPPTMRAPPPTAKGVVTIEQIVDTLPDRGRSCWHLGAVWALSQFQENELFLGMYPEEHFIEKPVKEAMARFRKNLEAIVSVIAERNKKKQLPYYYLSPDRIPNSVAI
Assay: 5-lipoxygenase inhibition in human leukocytes, 5-HETE formation (5LOA; methods 5LOA1 and 5LOA2)
Type: cell-based
Settings: for IC50: 5-HETE formation, human leukocytes, read-out: Concentration (M) for 50.0 % Inhibition, IC (5LOA)
Source text: To Evaluate the Effect of Each Compounds as a 5-Lipoxygenase Inhibitor in Comparison to Standard Reference Agents in Human Leukocytes (5LOA1)
The purpose of this assay is to evaluate the activity of each compound as an inhibitor of human leukocyte 5-lipoxygenase.
Arachidonic acid and calcium ionophore A23187 are obtained from Sigma (St. Louis, MO). Silica gel plates, GF are obtained from Analtech (Newark, DE). Arachidonic acid, (1-^14 C) and 5-HETE (^3 H), 5 (S)-hydroxy-6-trans,8,11,14-cis eicosatetraenoic acid, are obtained from New England Nuclear (Boston, MA). Six percent Dextran-70 in 0.9% NaCl is obtained from Cutter Labs (Berkeley, CA).
Preparation of Leukocytes
Fresh blood from normal adult men who had not received any drugs for at least the previous five days is obtained by the Community Research Clinic (WL/PD) using venipuncture and collected into heparinized vacuotainer tubes. To every 100 ml of pooled blood is added 25 ml of dextran solution (6% dextran -70 in 0.9% sodium chloride containing 3% dextrose) and this is mixed gently in a plastic cylinder. The mixture is left to stand at room temperature for at least 90 minutes. The upper layer which is rich in leukocytes and platelets is then carefully decanted into 50 ml plastic tubes and centrifuged at about 100×g for eight minutes in an IEC centrifuge and rotor number 269 (about 600 rpm). The supernatant fluid is discarded and the pellet is resuspended in 10 ml of 0.87% ammonium chloride for exactly two minutes. This procedure is to lyse completely contaminating red blood cells. Leukocytes are then separated by centrifugation for ten minutes. The pellet is washed three times by suspension in 20 ml PBS (sodium chloride, 7.1 g; Na2 HPO4, 1.15 g; KH2 PO4, 0.2 g, and KCl, 0.2 g/L) and centrifuged as before. The final pellet is suspended in PBS containing 0.87 mM CaCl2. Viability of the cells is then checked using trypan blue exclusion method and is found to be over 90%.
5-Lipoxygenase Enzyme Assay
Leukocyte cells in suspension (0.98 ml) are incubated with or without test compounds for five minutes at 37° C. in a shaking water bath. At this time a 17 μl mixture is prepared per 1 ml of cell suspension: 100 mM arachidonic acid, 1 μl, 0.05 μCi ^14 C-arachidonic acid in 5 μl; 1 mM calcium ionophore A23187, 10 μl (1). This mixture is added and the incubation continued for five minutes. The reaction is stopped by adding four volumes of absolute ethanol and the mixture is kept in ice for 30 minutes. The floculated precipitate is separated by centrifugation at about 37,000×g for 20 minutes (Beckman Instruments rotor number 40). The alcohol extract is taken to dryness under a stream of nitrogen and the residue is dissolved in 100-200 μl absolute ethanol. At the time any turbidity is removed by centrifugation. An aliquot (25-50 μl) is applied onto 20×20 cm silica gel TLC plate and developed using the following solvent system: diethyl ether, petroleum ether (2040° C.), acetic acid (50:50:1 v/v). Zones of 1 cm apart are scraped from the TLC plate and transferred to mini-vials. Methanol (0.5 ml) is added to dissolve the radioactivity adsorbed to the silica gel and scintillation fluid (H. P., Beckman), 5 ml is then added and vials are counted in a liquid scintillation counter. A sample of ^3 H-5-HETE is applied and used for the identification of the formed 5-HETE.
Total radioactivity in the test as well as the control samples are normalized and the amount of 5-HETE present is calculated accordingly.
IC50 values are defined as the concentrations of test agents which caused a 50% inhibition of the formation of 5-HETE as compared to control and are determined by inspection of the concentration-response curves.
5-Lipoxygenase Assay Using Isolated Human Leukocytes (5LOA2)
The formation of 5-HETE in human leukocytes is considered a measure of 5-lipoxygenase activity. The protocol is described in the following. […]

IC50	Structure (SMILES)	other results
1.17e-05 M	O=C(Nc1ccc(C=Cc2ccc([N+](=O)[O-])cc2)cc1)C1CS(=O)(=O)c2ccccc2C1=O (centres unmarked) [Example 67, 2H-1-Benzothiopyran-3-carboxamide, 3,4-dihydro-N-[4-[2-(4-nitrophenyl)ethenyl]phenyl]-4-oxo-, 1,1-dixide]	
1.35e-05 M	COc1ccc(CCc2ccc(NC(=O)C3=C(O)c4ccccc4S(=O)(=O)C3)cc2)cc1OC [Example 18, N-[4-[2-(3,4-Dimethoxyphenyl)ethyl]phenyl]-4-hydroxy-2H-1-benzothiopyran-3-carboxamide, 1,1-dioxide]	
5.22e-06 M	COc1ccc(CCc2ccc(NC(=O)c3sc4ccccc4c3O)cc2)cc1OC [Example 143, Benzo[b]thiophene-2-carboxamide, N-[4-[2-(3,4-dimethoxphenyl)ethyl]phenyl]-3-hydroxy]	
2.12e-06 M	O=C(Nc1ccc(CCc2ccc3ccccc3c2)cc1)C1=C(O)c2ccccc2S(=O)(=O)C1 [Example 51, 4-Hydroxy-N-[4-[2-(2-naphthalenyl)ethyl]phenyl]-2H-1-benzothiopyran-3-carboxamide, 1,1-dioxide]	
5.25e-06 M	O=C(Nc1ccc(CCc2ccc(Cl)cc2)cc1)C1CS(=O)(=O)c2ccccc2C1=O (centres unmarked) [Example 54, N-[4-[2-(4-Chlorophenyl)ethyl]phenyl]-3,4-dihydro-4-oxo-2H-1-benzothiopyran-3-carboxamide, 1,1-dioxide]	
1.1e-05 M	O=C(Nc1cccc(CCc2ccc(Cl)c(Cl)c2)c1)C1=C(O)c2ccccc2S(=O)(=O)C1 [Example 76, 2H-1-Benzothiopyran-3-carboxamide, N-[3-[2-(3,4-dichlorophenyl)ethyl]phenyl]-4-hydroxy-, 1,1-dioxide]	
1.01e-05 M	O=C(Nc1ccccc1CCCc1ccc(Cl)c(Cl)c1)C1=C(O)c2ccccc2S(=O)(=O)C1 [Example 80, 2H-1-Benzothiopyran-3-carboxamide, N-[2-[3-(3,4-dichlorophenyl)propyl]phenyl]-4-hydroxy-, 1,1-dioxide]	
3.96e-06 M	O=C(Nc1cccc(CCc2ccc(Cl)c(Cl)c2)c1)c1sc2ccccc2c1O [Example 146, Benzo[b]thiophene-2-carboxamide, N-[3-[2-(3,4-dichlorophenyl)ethyl]phenyl]-3-hydroxy]	
4.09e-06 M and 8.2e-06 M	O=C(Nc1ccc(CCc2cccc3ccccc23)cc1)C1=C(O)c2ccccc2S(=O)(=O)C1 [Example 73, 2H-1-Benzothiopyran-3-carboxamide, 4-hydroxy-N-[4-[2-(1-naphthalenyl)ethyl]phenyl], 1,1-dioxide]	
1.06e-05 M	O=C(Nc1ccc(Cc2ccc(Cl)c(Cl)c2)cc1)C1=C(O)c2ccccc2S(=O)(=O)C1 [Example 78, 2H-1-Benzothiopyran-3-carboxamide, N-[4-[(3,4-dichlorophenyl)methyl]phenyl]-4-hydroxy-, 1,1-dioxide]	
7e-06 M	COc1ccc(CCc2ccc(NC(=O)C3CS(=O)(=O)c4ccccc4C3=O)cc2)cc1 (centres unmarked) [Example 41]	
9.3e-06 M	O=C(Nc1ccc(C=Cc2ccc(Cl)c(Cl)c2)cc1)C1=C(O)c2ccccc2S(=O)(=O)C1 [Example 74, 2H-1-Benzothiopyran-3-carboxamide, N-[4-[2-(3,4-dichlorophenyl)ethenyl]phenyl]-4-hydroxy-, 1,1-dioxide]	
9.2e-06 M	O=C(Nc1ccc(CCCc2ccc(Cl)c(Cl)c2)cc1)C1=C(O)c2ccccc2S(=O)(=O)C1 [Example 79, 2H-1-Benzothiopyran-3-carboxamide, N-[4-[3-(3,4-dichlorphenyl)propyl]phenyl]-4-hydroxy-, 1,1-dioxide]	
1.8e-05 M	COc1ccc(CCc2ccc(NC(=O)C3CS(=O)(=O)c4ccccc4C3=O)cc2)cc1O (centres unmarked) [Example 27, 3,4-Dihydro-N-[4-[2-(3-hydroxy-4-methoxyphenyl)ethyl]phenyl]-4-oxo-2H-1-benzothiopyran-3-carboxamide, 1,1-dioxide]	
1.19e-05 M	O=C(Nc1ccc(CCc2c(F)c(F)c(F)c(F)c2F)cc1)C1=C(O)c2ccccc2S(=O)(=O)C1 [Example 64, N-[4-[2-(2,3,4,5,6-Pentafluorophenyl)ethyl]phenyl]-4-hydroxy-2H-1-benzothiopyran-3-carboxamide, 1,1-dioxide]	
6e-06 M	COc1cc(CCc2ccc(NC(=O)C(=O)c3sc4ccccc4c3O)cc2)ccc1O [Example 142, Benzo[b]thiophene-2-acetamide, 3-hydroxy-N-[4-[2-(4-hydroxy-3-methoxyphenyl)ethyl]phenyl]-α-oxo-]	
1.59e-05 M and 1.91e-05 M	CCCCOc1ccc(CCc2ccc(NC(=O)C3CS(=O)(=O)c4ccccc4C3=O)cc2)cc1 (centres unmarked) [Example 48]	
1.1e-05 M	O=C(Nc1ccc(CCc2ccc(-c3ccccc3)cc2)cc1)C1CS(=O)(=O)c2ccccc2C1=O (centres unmarked) [Example 46, N-[4-[2-([1,1'-biphenyl]-4-yl)ethyl]phenyl]-3,4-dihydro-4-oxo-2H-1-benzothiopyran-3-carboxamide, 1,1-dioxide]	
3.8e-06 M	Cc1ccc(CCc2ccc(NC(=O)C3CS(=O)(=O)c4ccccc4C3=O)cc2)cc1C (centres unmarked) [Example 53, N-[4-[2-(3,4-Dimethylphenyl)ethyl]phenyl]-3,4-dihydro-4-oxo-2H-1-benzothiopyran-3-carboxamide, 1,1-dioxide]	
1.77e-05 M	O=C(Nc1ccc(CCc2ccccc2)cc1)C1CS(=O)(=O)c2ccccc2C1=O (centres unmarked) [Example 16, 3,4-Dihydro-4-oxo-N-[(4-(2-phenyl)ethyl]-phenyl]-2H-1-benzothiopyran-3-carboxamide, 1,1-dioxide]	
	CCCCCCCCCCc1ccc(NC(=O)C2CS(=O)(=O)c3ccccc3C2=O)cc1 (centres unmarked) [Example 60, N-(4-Decylphenyl)-3,4-dihydro-4-oxo-2H-1-benzoothiopyran-3-carboxamide, 1,1-dioxide]	% Inhibition (5LOA) (Concentration 1.00 E -5 M): 25.2%; % Inhibition (5LOA) (Concentration 2.00 E -5 M): 21.7%; % Inhibition (5LOA) (Concentration 5.00 E -6 M): 7.9%

Source: patent US4868195A, “Novel enolamides, pharmaceutical compositions and methods of use thereof for activity as modulators of the arachidonic acid cascade” (Warner-Lambert Company, priority 1988, dated 1989)
